Test results from patent US20050137194A1, “Combination of selected opioids with other active compounds for treatment of urinary incontinence” (Gruenenthal GmbH, priority 2002, published 2005).
Read-outs that look alike come from different tables or passages of the source. Marks after values point to notes of the source that are not given here.

Legend:
naive female rats = experiment: Cystometry test system on narcotized naive rats (suppression of spontaneous bladder contractions); assay type: in vivo, rat; settings: i.v. cumulative; for minimal effective dose: Rattus norvegicus, iv, 10 min, read-out: Lowest dose at which for the first time contractions were absent over a period of 10 minutes
Description: The cystometric investigation on naive female rats was carried out in accordance with the method of Kimura et al. (Kimura et al., 1996, Int. J. Urol. 3: 218-227). The abdomen of narcotized, ventilated rats is opened up and the ureter is ligated. The urine is drained from the kidneys. A catheter is inserted into the bladder and fixed. […] After stable starting values have been reached, the test substance is administered i.v. in a cumulative manner. Influencing of the bladder function manifests itself via suppression of the spontaneous contractions. In this context, the absence of contractions over a period of 10 min is a parameter for the suppression.
With all the substances listed here, a suppression of the spontaneous contractions was measurable in the rats, table 3 showing the mean of the lowest dose of at least 2 experiments at which for the first time contractions were absent over a period of 10 minutes.
With all the substances listed here, a suppression of the spontaneous contractions was measurable in the rats, table 4 showing the mean of the lowest dose of at least 2 experiments at which for the first time contractions were absent over a period of 10 minutes.
With all the substances listed here, a suppression of the spontaneous contractions was measurable in the rats, table 5 showing the mean of the lowest dose of at least 2 experiments at which for the first time contractions were absent over a period of 10 minutes. […]

[1] = tested on: naive, female Sprague-Dawley rats; experiment: Cystometry test system on conscious naive rats; settings: for action on bladder regulation (in words): conscious naive rats, i.v.
Description: Three days after implantation of bladder and venous catheters, the animals were investigated in the freely mobile, conscious state. The bladder catheter was connected to a pressure transducer and an injection pump. The animals were placed in metabolism cages which allowed measurement of the volume of urine. Physiological saline solution was infused into the emptied bladder (10 ml/h) and the bladder pressure and micturition volume were recorded continuously. After a stabilization phase, a 20 minute phase, which was characterized by normal, reproducible micturition cycles, was recorded. The following parameters, inter alia, were determined: • threshold pressure (TP, bladder pressure immediately before micturition), • bladder capacity (BC, residual volume after preceding micturition plus volume of the infused solution during the filling phase), • intercontraction interval (ICI, the interval of time between micturitions).

rat = rat model of rhythmic bladder contractions; Nippon-Shinyaku, WO 98/46216; cited from earlier work
[2] = tested on: female Sprague-Dawley rats; experiment: Cystometry test system on conscious damaged rats (oxyhaemoglobin-induced bladder hyperactivity, urgency incontinence model)
Description: This model simulates the urgency incontinence in an animal model; the oxyhaemoglobin (OxyHb) employed induces a bladder hyperactivity.
Three days after implantation of bladder and venous catheters, the animals were investigated in the freely mobile, conscious state. The bladder catheter was connected to a pressure transducer and an injection pump. The animals were placed in metabolism cages which allowed measurement of the volume of urine. Physiological saline solution was infused into the emptied bladder (10 ml/h) and the bladder pressure and micturition volume were recorded continuously. After a stabilization phase, a 20 minute phase, which was characterized by normal, reproducible micturition cycles, was recorded. The following parameters, inter alia, were determined: • threshold pressure (TP, bladder pressure immediately before micturition), • bladder capacity (BC, residual volume after preceding micturition plus volume of the infused solution during the filling phase), • intercontraction interval (ICI, the interval of time between micturitions) • micturition pressure (MP, maximum bladder pressure during a micturition).
After three reproducible micturition cycles had been recorded as the pre-value, 2.5×10^−4 M oxyhemoglobin in the vehicle=0.9% NaCl were infused into the bladder. The action on the cystometric parameters was recorded for about 20 minutes. At the action maximum the mean of 3 micturition cycles was determined and shown as a percentage change compared with the pre-value (table 8).

[3] = 1.0 mg/kg iv, action maximum, mean of 3 micturition cycles
[4] = mean of at least 3 independent experiments
[5] = after OxyHb 2.5 × 10^−4 M, n = 5, average ± standard deviation
[6] = pre-value before OxyHb 2.5 × 10^−4 M, n = 5, average ± standard deviation

For `CC[C@](O)(c1ccc(Cl)c(Cl)c1)[C@H](C)CN(C)C.Cl` (racemic) [Compound 3, (2RS,3RS)-3-(3,4-dichlorophenyl)-1-dimethylamino-2-methyl-pentan-3-ol, hydrochloride], the “Lowest dose at which for the first time contractions were absent over a period of 10 minutes” value (naive female rats; mean of at least 2 experiments) was 23.3 mg/kg.
Compound `CC[C@](O)(c1cccc(C(F)F)c1)[C@H](C)CN(C)C.Cl` (racemic) [Compound 4, (2RS,3RS)-3-(3-difluoromethyl-phenyl)-1-dimethylamino-2-methyl-pentan-3-ol, hydrochloride] has a minimal effective dose (naive female rats; mean of at least 2 experiments) of 1.7 mg/kg.
Compound `CC[C@](O)(c1cccc(SC)c1)[C@H](C)CN(C)C.Cl` (racemic) [Compound 5, (2RS,3RS)-1-dimethylamino-2-methyl-3-(3-methylsulfanyl-phenyl)-pentan-3-ol, hydrochloride] has a minimal effective dose (naive female rats; mean of at least 2 experiments) of 2.3 mg/kg.
In the case of `COc1cccc(C(O)(CCN(C)C)C(C)(C)C)c1.Cl` (racemic) [Compound 6, (3RS)-1-dimethylamino-3-(3-methoxy-phenyl)-4,4-dimethyl-pentan-3-ol, hydrochloride], the “Lowest dose at which for the first time contractions were absent over a period of 10 minutes” value (naive female rats; mean of at least 2 experiments) is reported as 16.7 mg/kg.
For `CCC(O)(c1cccc(O)c1)C(C)CN(C)C.Cl` (racemic) [Compound 7, (2RS,3RS)-3-(3-dimethylamino-1-ethyl-1-hydroxy-2-methyl-propyl)-phenol, hydrochloride], the “BC bladder capacity, change relative to the pre-value” ([1]; 0.3 mg/kg iv) was “+32% *”, the “ICI intercontraction interval, change relative to the pre-value” ([1]; 0.3 mg/kg iv) was “+28% *” and the “TP threshold pressure, change relative to the pre-value” ([1]; 0.3 mg/kg iv) was “+95% **”.
For `C[C@H](CN(C)C)[C@@](C)(O)c1cccc(O)c1.Cl` (racemic) [Compound 8, (1RS,2RS)-3-(3-dimethylamino-1-hydroxy-1,2-dimethyl-propyl)-phenol, hydrochloride], the “BC bladder capacity, change relative to the pre-value” [1, 3] was “+7%”, the “ICI intercontraction interval, change relative to the pre-value” [1, 3] was “+14.4%” and the “TP threshold pressure, change relative to the pre-value” [1, 3] was “+60% **”.
Work on `CCC(O)(c1cccc(OC)c1)C1(CN(C)C)CCCCC1.Cl` (racemic) [Compound 13, (1RS)-1-(1-dimethylaminomethyl-cyclohexyl)-1-(3-methoxy-phenyl)-propan-1-ol, hydrochloride] yielded a minimal effective dose (naive female rats; mean of at least 2 experiments) of 20 mg/kg.
With `CC[C@](O)(c1ccc(Cl)cc1)[C@H](C)CN(C)C.Cl` (racemic) [Compound 14, (2RS,3RS)-3-(4-chlorophenyl)-1-dimethylamino-2-methyl-pentan-3-ol, hydrochloride] the minimal effective dose (naive female rats; mean of at least 2 experiments) was 20 mg/kg.
In the case of `COc1cccc(C2(O)CCCCC2CN(C)C)c1` (racemic) [Compound 23, rac-tramadol, reference compound], the minimal effective dose (naive female rats; mean of at least 2 experiments) is listed as 5.3 mg/kg and the “effect on bladder function (in words)” value (rat) is listed as “positive effect on bladder function”.
With `COc1cccc([C@@]2(O)C[C@H](O)CC[C@@H]2CN(C)C)c1.Cl` (racemic) [Compound 24, (1RS,3RS,6RS)-6-dimethylaminomethyl-1-(3-methoxy-phenyl)-cyclohexane-1,3-diol, hydrochloride] the “BC bladder capacity, change relative to the pre-value” [1, 3] was −8.0%, the “ICI intercontraction interval, change relative to the pre-value” [1, 3] was −15% ** and the “TP threshold pressure, change relative to the pre-value” [1, 3] was “+44.0% ***”. The “BC bladder capacity, change relative to the pre-value” ([1]; 3.0 mg/kg iv) was −16.0% *, the “ICI interconnection interval, change relative to the pre-value” ([1]; 3.0 mg/kg iv) was −16% * and the “TP threshold pressure, change relative to the pre-value” ([1]; 3.0 mg/kg iv) was “+94.0% **”. For the same compound, the “BC bladder capacity, change relative to the pre-value” ([1]; 5.0 mg/kg iv) was −26.0% *, the “ICI interconnection interval, change relative to the pre-value” ([1]; 5.0 mg/kg iv) was −21.2% and the “TP threshold pressure, change relative to the pre-value” ([1]; 5.0 mg/kg iv) was “+69.0% *”.
With `CN(C)C[C@H]1CC[C@@H](O)C[C@]1(O)c1cccc(O)c1.Cl` (racemic) [Compound 26, (1RS,3RS,6RS)-6-dimethylaminomethyl-1-(3-hydroxy-phenyl)-cyclohexane-1,3-diol, hydrochloride] the “BC bladder capacity, change relative to the pre-value” ([1]; 3.0 mg/kg iv) was “+29.0% *”, the “ICI interconnection interval, change relative to the pre-value” ([1]; 3.0 mg/kg iv) was “+27.0% *” and the “TP threshold pressure, change relative to the pre-value” ([1]; 3.0 mg/kg iv) was “+86.0% ***”.
`COc1cccc([C@@]2(O)C[C@@H](O)CC[C@@H]2CN(C)C)c1.Cl` (racemic) [Compound 27, (1RS,3SR,6RS)-6-dimethylaminomethyl-1-(3-methoxy-phenyl)-cyclohexane-1,3-diol, hydrochloride] showed a minimal effective dose (naive female rats; mean of at least 2 experiments) of 115 mg/kg.
Work on `CN(C)C[C@H]1CC[C@@H](C(F)(F)F)C[C@]1(O)c1cccc(O)c1.Cl` (racemic) [Compound 29, (1RS,2RS,5RS)-3-(2-dimethylaminomethyl-1-hydroxy-5-trifluoromethyl-cyclohexyl)-phenol, hydrochloride] yielded a minimal effective dose (naive female rats; mean of at least 2 experiments) of 23.3 mg/kg.
In the case of `CC[C@](O)(c1cccc(OC)c1)[C@H](C)CN(C)C.Cl` [Compound 2, (+)-(2R,3R)-1-dimethylamino-3-(3-methoxy-phenyl)-2-methyl-pentan-3-ol, hydrochloride], the “action on bladder regulation (in words)” value [1] is reported as “effectively active”.
With `C[C@H](CN(C)C)[C@@](C)(O)c1cccc(O)c1.Cl` [Compound 9, (+)-(1R,2R)-3-(3-dimethylamino-1-hydroxy-1,2-dimethyl-propyl)-phenol, hydrochloride] the “BC bladder capacity, change relative to the pre-value” ([1]; 0.5 mg/kg iv) was “+50% **”, the “ICI intercontraction interval, change relative to the pre-value” ([1]; 0.5 mg/kg iv) was “+21% *” and the “TP threshold pressure, change relative to the pre-value” ([1]; 0.5 mg/kg iv) was “+56% **”.
In the case of `C[C@H](CN(C)C)[C@@](C)(O)c1cccc(O)c1.Cl` [Compound 10, (+)-(1R,2R)-3-(3-dimethylamino-1-hydroxy-1,2-dimethyl-propyl)-phenol, hydrochloride], the minimal effective dose (naive female rats; mean of at least 2 experiments) is reported as 0.2 mg/kg.
In the case of `CC[C@](OC(C)=O)(c1cccc(OC)c1)[C@H](C)CN(C)C.Cl` [Compound 12, (+)-(1R,2R)-acetic acid 3-dimethylamino-1-ethyl-1-(3-methoxy-phenyl)-2-methyl-propyl ester, hydrochloride], the minimal effective dose (naive female rats; mean of at least 2 experiments) is reported as 30 mg/kg.
`CN(C)C[C@H]1CCCC[C@]1(F)c1cccc(O)c1.Cl` [Compound 18, (+)-(1R,2R)-3-(2-dimethylaminomethyl-1-fluoro-cyclohexyl)-phenol, hydrochloride] gave a minimal effective dose (naive female rats; mean of at least 2 experiments) of 0.2 mg/kg.
`CN(C)C[C@H]1CCCC[C@@H]1c1cccc(O)c1.Cl` [Compound 19, (+)-(1S,2S)-3-(2-dimethylaminomethyl-cyclohexyl)-phenol, hydrochloride] showed a minimal effective dose (naive female rats; mean of at least 2 experiments) of 0.1 mg/kg.
`CN(C)C[C@@H]1CCCC[C@H]1c1cccc(O)c1.Cl` [Compound 20, (−)-(1R,2R)-3-(2-dimethylaminomethyl-cyclohexyl)-phenol, hydrochloride] gave a minimal effective dose (naive female rats; mean of at least 2 experiments) of 0.5 mg/kg.
With `CC[C@@](O)(c1cccc(OC)c1)[C@@H](C)CN(C)C.Cl` [Compound 21, (−)-(2S,3S)-1-dimethylamino-3-(3-methoxy-phenyl)-2-methyl-pentan-3-ol, hydrochloride] the “action on bladder regulation (in words)” value [1] was “does not contribute to the action”.
In the case of `COc1cccc([C@@]2(O)C[C@H](O)CC[C@@H]2CN(C)C)c1.Cl` [Compound 25, (+)-(1R,3R,6R)-6-dimethylaminomethyl-1-(3-methoxy-phenyl)-cyclohexane-1,3-diol, hydrochloride], the “BC bladder capacity, change relative to the pre-value” ([1]; 1.5 mg/kg iv) is reported as −14.0% *, the “ICI interconnection interval, change relative to the pre-value” ([1]; 1.5 mg/kg iv) is reported as −9.0 * % and the “TP threshold pressure, change relative to the pre-value” ([1]; 1.5 mg/kg iv) is reported as “+62.0% *”.
For `C[C@H]1CC[C@H](CN(C)C)[C@@](O)(c2cccc(O)c2)C1.Cl` [Compound 28, (+)-(1R,2R,5S)-3-(2-dimethylaminomethyl-1-hydroxy-5-methyl-cyclohexyl)-phenol, hydrochloride], the minimal effective dose (naive female rats; mean of at least 2 experiments) was 16.7 mg/kg.
`CCC1(c2cccc(O)c2)CCCCN(C)C1` (centres unmarked) [meptazinol, reference compound] showed a minimal effective dose (naive female rats; [4]) of 1 mg/kg.
`CCOC(=O)C1(c2ccccc2)CCC=CC1N(C)C` (centres unmarked) [tilidine, reference compound] showed a minimal effective dose (naive female rats; [4]) of 0.5 mg/kg.
For oxyhaemoglobin [OxyHb], the “BC bladder capacity, change (diff) in comparison with the pre-value” ([2]; OxyHb 2.5 × 10^−4 M alone) was “diff: −29.3%”, the “ICI intercontraction interval, change (diff) in comparison with the pre-value” ([2]; OxyHb 2.5 × 10^−4 M alone) was “diff: −32.9%” and the “MP micturition pressure, change (diff.) in comparison with the pre-value” ([2]; OxyHb 2.5 × 10^−4 M alone) was “diff.: +64.4%”. For the same compound, the “TP threshold pressure, change (diff.) in comparison with the pre-value” ([2]; OxyHb 2.5 × 10^−4 M alone) was “diff.: +12.8%”, the “BC bladder capacity, after (a)” value [2, 5] was “a: 0.65 ± 0.06 ml” and the “ICI intercontraction interval, after (a)” value [2, 5] was “a: 3.33 ± 0.18 min”. The “MP micturition pressure, after (a)” value [2, 5] was “a: 97 ± 5 cm H2O”, the “TP threshold pressure, after (a)” value [2, 5] was “a: 9.84 ± 1.56 cm H2O” and the “BC bladder capacity, before (b)” value [2, 6] was “b: 0.92 ± 0.10 ml”. For the same compound, the “ICI intercontraction interval, before (b)” value [2, 6] was “b: 4.96 ± 0.33 min”, the “MP micturition pressure, before (b)” value [2, 6] was “b: 59 ± 8 cm H2O” and the “TP threshold pressure, before (b)” value [2, 6] was “b: 8.72 ± 1.31 cm H2O”.
